The results in this text go back to PubChem BioAssay (NCI).

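Five compound concentrations were applied to cells in 96-well plates for 48 hours; endpoints were derived by simple linear interpolation of the resulting dose-response curve. GI50 marks 50% less growth. TGI marks complete inhibition of growth.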

Some test systems named below: CAKI-1 renal; CCRF-CEM leukemia; NCI/ADR-RES ovarian; RPMI-8226 leukemia; SNB-75 CNS; SR leukemia; T-47D breast.
Common to all, as to assay: NCI anticancer screen, dose series, 48 h

Take `NCCNc1ncnc2ccc(Cl)cc12`: the TGI with CAKI-1 renal, in the assay on CCRF-CEM leukemia, with NCI/ADR-RES ovarian, in the assay with RPMI-8226 leukemia, in the assay with SNB-75 CNS and in the assay on SR leukemia was above 100 µM each time. In the assay with T-47D breast, this compound displayed a TGI above 100 µM.

In the case of `CCN1C(=O)N(CC)C2C1NN=c1s/c(=C\c3cnc(C)n3C)c(=O)n12` (configuration not stated), the GI50 was 0.7 µM with CAKI-1 renal; 2.75 µM with CCRF-CEM leukemia; 10.3 µM in the assay on NCI/ADR-RES ovarian; 3.47 µM in the assay on RPMI-8226 leukemia; 0.324 µM in the assay on SNB-75 CNS; 0.346 µM in the assay on SR leukemia. Besides, the GI50 with T-47D breast is 4.81 µM. Also, the TGI in the assay with CAKI-1 renal is above 100 µM; in the assay on CCRF-CEM leukemia, above 100 µM; in the assay on NCI/ADR-RES ovarian, above 100 µM; with RPMI-8226 leukemia, above 100 µM; in the assay with SNB-75 CNS, 3.44 µM; in the assay with SR leukemia it was 19.1 µM. In the assay with T-47D breast, this compound showed a TGI above 100 µM.

`COC(=O)[C@]1(C)CC[C@]2(C)CC[C@]3(C)C(=CC(=O)[C@@H]4[C@@]5(C)CCC(=O)NC(C)(C)[C@@H]5CC[C@]43C)[C@@H]2C1`: the GI50 in the assay with CAKI-1 renal was 35.9 µM; in the assay with CCRF-CEM leukemia, 15.1 µM; in the assay on NCI/ADR-RES ovarian, 20.2 µM; in the assay with RPMI-8226 leukemia it was 12 µM; in the assay on SNB-75 CNS, 25.5 µM; in the assay on SR leukemia, 15.5 µM. In addition, the GI50 in the assay on T-47D breast was 9.97 µM. The TGI in the assay with CAKI-1 renal was above 100 µM; in the assay with CCRF-CEM leukemia, 44.6 µM; with NCI/ADR-RES ovarian, 53.6 µM; in the assay on RPMI-8226 leukemia it was 34.7 µM; with SNB-75 CNS it was above 100 µM; in the assay with SR leukemia, 50.5 µM. Besides, the TGI with T-47D breast is above 100 µM.

For `O=C(CN1CCN(c2ccccn2)CC1)Nc1ccc(Cl)cc1C(=O)c1ccccc1Cl`, the GI50 is above 100 µM in the assay with CAKI-1 renal; 9.99 µM with CCRF-CEM leukemia; 86.8 µM in the assay with NCI/ADR-RES ovarian; 4.64 µM with RPMI-8226 leukemia; above 100 µM in the assay on SNB-75 CNS; 6.63 µM with SR leukemia. Moreover, the GI50 with T-47D breast is 3.89 µM. Also, the TGI with CAKI-1 renal, with CCRF-CEM leukemia, in the assay with NCI/ADR-RES ovarian, in the assay on RPMI-8226 leukemia, in the assay on SNB-75 CNS and in the assay on SR leukemia was above 100 µM each time. The compound also showed a TGI with T-47D breast above 100 µM.

For `COc1cc[nH]c1/C=C1\C(=O)Nc2ccc([N+](=O)[O-])c(N3CC[C@@H](O)C3)c21`, the GI50 is 0.369 µM in the assay on CAKI-1 renal; 0.0855 µM in the assay on CCRF-CEM leukemia; 0.53 µM in the assay with NCI/ADR-RES ovarian; 0.296 µM in the assay on RPMI-8226 leukemia; 0.0931 µM in the assay on SNB-75 CNS; 0.0536 µM with SR leukemia. Besides, the GI50 with T-47D breast was 0.541 µM. For the same compound, the TGI with CAKI-1 renal was determined as 1.63 µM; with CCRF-CEM leukemia, 1.51 µM; with NCI/ADR-RES ovarian it was 5.83 µM; with RPMI-8226 leukemia it was 1.14 µM; in the assay on SNB-75 CNS, 0.989 µM; in the assay with SR leukemia it was 0.185 µM. This compound also registered a TGI in the assay on T-47D breast of 3.8 µM.

For `Cn1c(=O)c2[nH]cnc2n(C)c1=O.[CH2-]C(Cc1cccc2cc(C(=O)O)c(=O)oc12)OC.[Hg+2].[OH-]` (configuration not stated), the GI50 in the assay on CAKI-1 renal is 18 µM; in the assay on CCRF-CEM leukemia it was 3.21 µM; in the assay on NCI/ADR-RES ovarian, 19.8 µM; in the assay on RPMI-8226 leukemia, 18.2 µM; in the assay with SNB-75 CNS, 17.7 µM; with SR leukemia it was 20.8 µM. Besides, the GI50 in the assay on T-47D breast is 18.9 µM. Further, the TGI is 32 µM in the assay with CAKI-1 renal; 18 µM in the assay with CCRF-CEM leukemia; 38.1 µM in the assay on NCI/ADR-RES ovarian; 65.1 µM with RPMI-8226 leukemia; 32.7 µM in the assay with SNB-75 CNS; 53.8 µM in the assay with SR leukemia. In the assay with T-47D breast, the TGI came out at 63.5 µM.

In the case of `CNCC1CCn2c(c(C3=C(c4cn(C)c5ccccc45)C(=O)NC3=O)c3ccccc32)C1` (configuration not stated), the GI50 in the assay with CAKI-1 renal is 3.68 µM; with CCRF-CEM leukemia it was 2.89 µM; in the assay with NCI/ADR-RES ovarian, 10.2 µM; in the assay with RPMI-8226 leukemia it was 3.85 µM; in the assay on SNB-75 CNS it was 0.972 µM; in the assay with SR leukemia, 1.79 µM. The GI50 in the assay on T-47D breast is 3.27 µM. Besides, the TGI with CAKI-1 renal was 9.28 µM; with CCRF-CEM leukemia, 12 µM; in the assay with NCI/ADR-RES ovarian, 25 µM; in the assay on RPMI-8226 leukemia, 9.86 µM; in the assay on SNB-75 CNS it was 4.66 µM; with SR leukemia it was 8.78 µM. In addition, the TGI with T-47D breast was 7.27 µM.

As for `CCCCCCCCCCCCCCCC(N)c1ccccc1` (configuration not stated), the GI50 was 1.53 µM in the assay with CAKI-1 renal; 1.98 µM in the assay on CCRF-CEM leukemia; 1.85 µM in the assay with NCI/ADR-RES ovarian; 2.09 µM in the assay on RPMI-8226 leukemia; 1.27 µM with SNB-75 CNS; 0.558 µM in the assay on SR leukemia. The GI50 in the assay on T-47D breast is 1.56 µM. In addition, the TGI in the assay on CAKI-1 renal was 2.96 µM; with CCRF-CEM leukemia, 4.33 µM; in the assay with NCI/ADR-RES ovarian it was 3.66 µM; with RPMI-8226 leukemia, 4.66 µM; in the assay with SNB-75 CNS, 2.88 µM; in the assay with SR leukemia it was 2.43 µM. The same compound returned a TGI in the assay on T-47D breast of 3.08 µM.

On to `O=C1C=C(OCC=C(Cl)Cl)C(=O)c2ccccc21`, for which the GI50 in the assay with CAKI-1 renal is 23.3 µM; with CCRF-CEM leukemia, 3.03 µM; in the assay with NCI/ADR-RES ovarian, 3.94 µM; in the assay on RPMI-8226 leukemia, 0.955 µM; in the assay with SNB-75 CNS, 7.4 µM; in the assay with T-47D breast it was 2.4 µM. In addition, the TGI was above 100 µM in the assay on CAKI-1 renal; above 19.7 µM with CCRF-CEM leukemia; above 51.7 µM in the assay on NCI/ADR-RES ovarian; above 20.8 µM with RPMI-8226 leukemia; 56.9 µM in the assay with SNB-75 CNS; above 20.4 µM with SR leukemia. For the same compound, in the assay on T-47D breast, the TGI is above 29.6 µM.

As for `O=C1/C(=C/c2cccc(F)c2)CN(C(=O)C(Cl)Cl)C/C1=C\c1cccc(F)c1`, the GI50 with CAKI-1 renal was 0.389 µM; in the assay on CCRF-CEM leukemia it was 0.0345 µM; in the assay with NCI/ADR-RES ovarian it was 0.304 µM; in the assay on RPMI-8226 leukemia, 0.0318 µM; in the assay on SNB-75 CNS, 0.392 µM; with SR leukemia, 0.0296 µM. In addition, the GI50 with T-47D breast is 0.317 µM. Also, the TGI in the assay with CAKI-1 renal was 1.44 µM; in the assay on CCRF-CEM leukemia it was 17.7 µM; in the assay on NCI/ADR-RES ovarian, 1.49 µM; with RPMI-8226 leukemia, 0.169 µM; with SNB-75 CNS, 1.73 µM; in the assay on SR leukemia, 0.465 µM. For the same compound, the TGI in the assay with T-47D breast amounted to 1.76 µM.
